Measurements taken from patent US5171835A, “LHRH antagonists” (The Administrators of the Tulane Educational Fund, priority 1991, dated 1992).
Read-outs that look alike come from different tables or passages of the source. Square brackets hold non-standard residues; d marks the D form. dPhe(4-Cl) = N[C@H](Cc1ccc(Cl)cc1)C(=O)O; d2Nal = N[C@H](Cc1ccc2ccccc2c1)C(=O)O; dCit = NC(=O)NCCC[C@@H](N)C(=O)O; d3Pal = N[C@H](Cc1cccnc1)C(=O)O

Key:
[1] = system: Dunning R3327 prostate cancer; test: In vivo antitumor effect, Dunning R3327 prostate cancer in rats; parameters: species or system rat; settings: for Size of tumor, treated group: 25 μg/day, ± SD
Experimental: Inhibition of growth of cancerous tumors in rats with compounds of Formula I was tested as described by Szende et al. (J. Natl. Cancer Inst., 82, 513-517, 1990; Szende et al., Cancer Research), 50, 3716-3721, 1990) by A. V. Schally and T. Redding (Proc. Natl. Acad. Sci. US, 84, 7279-7282, 1987), and by E. Korkut et al. (Proc. Natl. Acad. Sci. US, accepted for publication). Peptide 8 was dissolved in 45% aqueous propylene-glycol and was administered at a dose of 25 μg/day from an ALZET minipump to male rats bearing the androgen-dependent well-differentiated R3327 Dunning rat prostate adenocarcinoma. Tumors were measured weekly with microcalipers and tumor volumes were calculated. Duration of the treatment was 8 weeks, changing the minipumps at the end of the 4th week.

[2] = system: perfused rat pituitary cell system (LH response to LH-RH); test: LH-RH inhibiting activity in superfused rat pituitary cell system; type: cell-based
Experimental: Immediately after that, a mixture containing the same concentration of peptide and 3 nM LHRH is administered for 3 min. This was followed by four consecutive infusions of 3 nM LHRH for 3 min (1 ml perfusate) at 30 min intervals (30, 60, 90, 120 min). LH content of the 1 ml fractions collected is determined by radioimmunoassay (RIA).

[3] = system: LH and FSH levels; test: In vivo effect on LH and FSH levels in castrated male rats; parameters: species or system rat; settings: s.c.
Experimental: (d) In vivo effect on LH and FSH levels was measured as described by L. Bokser et al. (Proc. Natl. Acad. Sci. US, accepted for publication.) Castrated male rats weighing 350-410 grams anaesthetized with urethane were injected subcutaneously with Peptide 7 and 8 in doses of 1.25 μg and 5.0 μg. Blood samples were taken from the jugular vein before injection and 1, 2, 3, 4, 6, 24 and 48 hours after the administration of peptides. Control animals were injected only with saline. LH and FSH levels were determined by specific RIAs.

[4] = system: membrane receptors of human breast cancer cells; test: Receptor binding, human breast cancer cell membranes (125I-[D-Trp6]LHRH as labelled ligand); settings: 125I-[D-Trp]6 LHRH labelled ligand
Experimental: Affinity of peptides to rat pituitary and human breast cancer cell membranes is determined by using labelled LHRH and [D-Trp^6 ]LHRH. The assay is carried out similarly to that described by T. Kadar et al., Proc. Natl. Acad. Sci. USA, 85, 890-894 (1988) and M. Fekete et al., Endocrinology, 124, 946-955 (1989).

[5] = system: LHRH; settings: prior art; cited from earlier work
[6] = cited from earlier work
[7] = rats bearing Dunning R3327H prostate cancer

## Ac-D-Nal(2)-D-Phe(4Cl)-D-Pal(3)-Ser-Tyr-D-Lys[A2 pr(Ac)2 ]-Leu-Arg-Pro-D-Ala-NH2 [Peptide 8]
[1]; week 0
  Size of tumor, treated group: 4001 ± 1617 mm^3
[1]; week 1
  Size of tumor, treated group: 5459 ± 1863 mm^3
[1]; week 2
  Size of tumor, treated group: 5892 ± 1938 mm^3
[1]; week 3
  Size of tumor, treated group: 6357 ± 2327 mm^3
[1]; week 4, p<0.05
  Size of tumor, treated group: 6237 ± 2974 mm^3
[1]; week 5, p<0.05
  Size of tumor, treated group: 7447 ± 3481 mm^3
[1]; week 6, p<0.05
  Size of tumor, treated group: 8038 ± 4374 mm^3
[1]; week 7, p<0.01
  Size of tumor, treated group: 8129 ± 3525 mm^3
[1]; Dunning R3327H prostate cancer, rats, control group 12 days
  Tumor doubling time: 42 days
[1]; [7]
  body weight during the treatment: did not change
  weight of testis, seminal vesicles and ventral prostate: greatly reduced
[2]; antagonist to LH-RH ratio 1:1, 0 min
  % inhibition of LH response: 64%
[2]; antagonist to LH-RH ratio 1:1, 30 min
  % inhibition of LH response: 39%
[2]; antagonist to LH-RH ratio 1:1, 60 min
  % inhibition of LH response: 27%
[2]; antagonist to LH-RH ratio 1:1, 90 min
  % inhibition of LH response: 22%
[2]; antagonist to LH-RH ratio 3:1, 0 min
  % inhibition of LH response: 99%
[2]; antagonist to LH-RH ratio 3:1, 30 min
  % inhibition of LH response: 66%
[2]; antagonist to LH-RH ratio 3:1, 60 min
  % inhibition of LH response: 47%
[2]; antagonist to LH-RH ratio 3:1, 90 min
  % inhibition of LH response: 37%
[3]; dose of 1.25 μg, 48 hours, p<0.05
  activity on LH levels forty-eight hours after injection: active
[3]; dose of 5 μg, 48 hours, p<0.05
  inhibition of LH levels forty-eight hours after injection: significant inhibition
[3]; p<0.01
  duration of significant decrease in the LH levels: more than 24 hours
[4]
  Affinity Constant Ka 2: 6.16 µM⁻¹
[4]; NB = no binding
  Affinity Constant Ka 1: 1.57 nM⁻¹

## Ac-[d2Nal][dPhe(4-Cl)][d3Pal]SY[dCit]LRP[dA]-NH2
[5]
  LHRH antagonist / ovulation inhibition potency: high inhibitory effect
[6]; prior art
  side effects: no edematogenic and anaphylactoid side effects

## [Ac-D-Nal(2)^1,D-Phe(4Cl)^2,D-Trp^3,D-hArg(Et)2^6,D-Ala^10 ] [Detirelix]
[5]
  LHRH antagonist / ovulation inhibition potency: powerful antagonist
[6]; in vivo
  side effects: hypotensive and bradycardic side effect
